Source: patent US20210147455A1 (SHAANXI SYNTHETIC PHARMACEUTICAL CO., LTD., priority 2018, published 2021)

Columns and labels:
[1] = Hygroscopicity study (Chinese Pharmacopoeia 2015, 9103); format: physicochemical; details: for Hygroscopic weight gain: 25° C.±1° C., saturated ammonium chloride solution, 24 hours; for Conclusion (hygroscopicity): after 24 hours
Method: Test method: • 1. A dried glass weighing bottle with stopper (having an outer diameter of 50 mm and a height of 15 mm) was placed in a thermostatic drier (a saturated ammonium chloride solution was placed on the lower part of the thermostatic drier) at an appropriate temperature of 25° C.±1° C. on the day earlier before the test, and the weight (m1) of weighing bottle was precisely weighed. • 2. An appropriate amount of test sample was taken and spread in the weighing bottle, and the thickness of the test sample was controlled to about 1 mm, and the weight (m2) was precisely weighed. • 3. The weighing bottle was opened and was placed, together with the bottle cap, under the above mentioned constant temperature and humidity condition for 24 hours. • 4. The weighing bottle was capped and precisely weighed to obtain the weight (m3).
Description of hygroscopicity characterization and delimitation of hygroscopicity weight gain: Deliquescence: enough moisture is absorbed to form a liquid. […] Slightly hygroscopic: hygroscopic weight gain is less than 2% but not less than 0.2%. Not or hardly hygroscopic: hygroscopic weight gain is less than 0.2%.

[2] = Stability experiments under 40° C.±2° C. and 75% R.H±5% R.H (accelerated test); format: physicochemical; details: 40° C./75% R.H
[3] = Stability experiments under 25° C.±2° C. and 65% R.H±5% R.H; details: 25° C./65% R.H
Text: • 1. […] The results are shown in detail in the following table.

| Compound | Hygroscopic weight gain [1] [%] | Content ([2]; month 0) [%] | Description ([2]; month 0) | Related substance ([2]; month 0) [%] | Content ([2]; month 1) [%] | Description ([2]; month 1) | Related substance ([2]; month 1) [%] | Content ([2]; month 2) | Description ([2]; month 2) | Related substance ([2]; month 2) [%] | Content ([2]; month 3) [%] | Description ([2]; month 3) | Related substance ([2]; month 3) [%] | Content ([2]; month 6) [%] | Description ([2]; month 6) | Related substance ([2]; month 6) [%] | Content ([3]; month 0) [%] | Description ([3]; month 0) | Related substance ([3]; month 0) [%] | Content ([3]; month 3) [%] | also measured |
| --- | --- | --- | --- | --- | --- | --- | --- | --- | --- | --- | --- | --- | --- | --- | --- | --- | --- | --- | --- | --- | --- |
| CC[C@@H]([C@H](C)OP(=O)([O-])[O-])n1ncn(-c2ccc(N3CCN(c4ccc(OC[C@@H]5CO[C@@](Cn6cncn6)(c6ccc(F)cc6F)C5)cc4)CC3)cc2)c1=O.C[N+](C)(C)CCO.C[N+](C)(C)CCO [Comparative Example 1, Posaconazole Phosphate Bicholinate] | 8.76 | 99.87 | White | 0.13 | 99.86 | White | 0.14 | 99.84% | White | 0.16 | 99.80 | White | 0.20 | 99.65 | White | 0.35 | 99.87 | White | 0.13 | 99.86 | Description ([3]; month 3): White; Related substance ([3]; month 3): 0.14%; Content ([3]; month 6): 99.81%; Description ([3]; month 6): White; Related substance ([3]; month 6): 0.19%; Content ([3]; month 9): 99.77%; Description ([3]; month 9): White; Related substance ([3]; month 9): 0.23%; Content ([3]; month 12): 99.61%; Description ([3]; month 12): White; Related substance ([3]; month 12): 0.31%; Content ([3]; month 24): 99.22%; Description ([3]; month 24): White; Related substance ([3]; month 24): 0.78% |
| CCC(C(C)OP(=O)([O-])[O-])n1ncn(-c2ccc(N3CCN(c4ccc(OCC5COC(Cn6cncn6)(c6ccc(F)cc6F)C5)cc4)CC3)cc2)c1=O.C[N+](C)(C)CCO.C[N+](C)(C)CCO.O.O.O.O.O (stereo not shown) [Comparative Example 2, Posaconazole Phosphate Bicholinate Pentahydrate] | 11.81 | 99.87 | White | 0.13 | 99.86 | White | 0.14 | 99.85% | White | 0.16 | 99.79 | White | 0.21 | 99.64 | White | 0.36 | 99.87 | White | 0.13 | 99.86 | Description ([3]; month 3): White; Related substance ([3]; month 3): 0.14%; Content ([3]; month 6): 99.81%; Description ([3]; month 6): White; Related substance ([3]; month 6): 0.19%; Content ([3]; month 9): 99.75%; Description ([3]; month 9): White; Related substance ([3]; month 9): 0.25%; Content ([3]; month 12): 99.71%; Description ([3]; month 12): White; Related substance ([3]; month 12): 0.29%; Content ([3]; month 24): 99.18%; Description ([3]; month 24): White; Related substance ([3]; month 24): 0.82% |
| CC[C@@H]([C@H](C)OP(=O)(O)O)n1ncn(-c2ccc(N3CCN(c4ccc(OC[C@@H]5CO[C@@](Cn6cncn6)(c6ccc(F)cc6F)C5)cc4)CC3)cc2)c1=O.CNC[C@H](O)[C@@H](O)[C@H](O)[C@H](O)CO [Comparative Example 4, Posaconazole Phosphate Monomeglumine Salt] | 0.88 | 99.87 | White | 0.13 | 99.73 | White | 0.27 | 99.62% | White | 0.38 | 99.50 | White | 0.50 | 99.36 | White | 0.64 | 99.87 | White | 0.13 | 99.81 | Conclusion (hygroscopicity) [1]: Slight hygroscopicity; Description ([3]; month 3): White; Related substance ([3]; month 3): 0.19%; Content ([3]; month 6): 99.69%; Description ([3]; month 6): White; Related substance ([3]; month 6): 0.31%; Content ([3]; month 9): 99.57%; Description ([3]; month 9): White; Related substance ([3]; month 9): 0.43%; Content ([3]; month 12): 99.50%; Description ([3]; month 12): White; Related substance ([3]; month 12): 0.50%; Content ([3]; month 24): 98.98%; Description ([3]; month 24): White; Related substance ([3]; month 24): 1.02% |
| CC[C@@H]([C@H](C)OP(=O)(O)O)n1ncn(-c2ccc(N3CCN(c4ccc(OC[C@@H]5CO[C@@](Cn6cncn6)(c6ccc(F)cc6F)C5)cc4)CC3)cc2)c1=O.N=C(N)NCCC[C@H](N)C(=O)O [Comparative Example 5, Posaconazole Phosphate Monoarginine Salt] | 1.02 | 99.87 | White | 0.13 | 99.72 | White | 0.28 | 99.60% | White | 0.40 | 99.50 | White | 0.50 | 99.37 | White | 0.63 | 99.87 | White | 0.13 | 99.79 | Conclusion (hygroscopicity) [1]: Slight hygroscopicity; Description ([3]; month 3): White; Related substance ([3]; month 3): 0.21%; Content ([3]; month 6): 99.71%; Description ([3]; month 6): White; Related substance ([3]; month 6): 0.29%; Content ([3]; month 9): 99.58%; Description ([3]; month 9): White; Related substance ([3]; month 9): 0.42%; Content ([3]; month 12): 99.49%; Description ([3]; month 12): White; Related substance ([3]; month 12): 0.51%; Content ([3]; month 24): 99.03%; Description ([3]; month 24): White; Related substance ([3]; month 24): 0.97% |
| CC[C@@H]([C@H](C)OP(=O)([O-])[O-])n1ncn(-c2ccc(N3CCN(c4ccc(OC[C@@H]5CO[C@@](Cn6cncn6)(c6ccc(F)cc6F)C5)cc4)CC3)cc2)c1=O.O.O.O.O.O.[Na+].[Na+] [Comparative Example 9, Posaconazole Phosphate Disodium Salt Pentahydrate] | 12.01 | 99.87 | White | 0.13 | 99.72 | White | 0.28 | 99.62% | White | 0.38 | 99.45 | White | 0.55 | 99.32 | White | 0.68 | 99.87 | White | 0.13 | 99.73 | Description ([3]; month 3): White; Related substance ([3]; month 3): 0.27%; Content ([3]; month 6): 99.68%; Description ([3]; month 6): White; Related substance ([3]; month 6): 0.32%; Content ([3]; month 9): 99.51%; Description ([3]; month 9): White; Related substance ([3]; month 9): 0.49%; Content ([3]; month 12): 99.41%; Description ([3]; month 12): White; Related substance ([3]; month 12): 0.59%; Content ([3]; month 24): 98.87%; Description ([3]; month 24): White; Related substance ([3]; month 24): 1.13% |
| Posaconazole Phosphate Disodium Salt [Comparative Example 10] | 13.91 | 99.87 | White | 0.13 | 99.72 | White | 0.28 | 99.60% | White | 0.40 | 99.45 | White | 0.55 | 99.34 | White | 0.66 | 99.87 | White | 0.13 | 99.72 | Description ([3]; month 3): White; Related substance ([3]; month 3): 0.28%; Content ([3]; month 6): 99.62%; Description ([3]; month 6): White; Related substance ([3]; month 6): 0.38%; Content ([3]; month 9): 99.57%; Description ([3]; month 9): White; Related substance ([3]; month 9): 0.43%; Content ([3]; month 12): 99.40%; Description ([3]; month 12): White; Related substance ([3]; month 12): 0.60%; Content ([3]; month 24): 98.84%; Description ([3]; month 24): White; Related substance ([3]; month 24): 1.16% |
| Posaconazole Phosphate Monosodium Salt [Comparative Example 8] | 1.92 | 99.87 | White | 0.13 | 99.71 | White | 0.29 | 99,63% | White | 0.37 | 99.47 | White | 0.53 | 99.32 | White | 0.68 | – | – | – | – | Conclusion (hygroscopicity) [1]: Slight hygroscopicity |
